Experiments:
[1] = target: T1, SIK2 kinase (full length, Thermo Fisher) (Homo sapiens, UniProt Q9H0K1); test: Biochemical activities determination for SIK2 protein (TR-FRET); conditions: 80 uM ATP, 0.5 μM substrate
T1 construct: SIK2 kinase (full length, Thermo Fisher); purchased Thermo Fisher
Outline: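 Full-length SIK2 preincubated 60 min with 0–10 μM compound, then reacted 180 min at room temperature with 80 uM ATP and 0.5 μM biotinylated substrate (pH 7.5 Tris/MgCl2 buffer). Phosphorylation detected by TR-FRET (665/620 nm ratio, cryptate antibody/streptavidin-XL665) after overnight incubation; IC50 from four-parameter logistic fit.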

[2] = target: T2, SIK1 kinase (aa1-303, Thermo Fisher) (Homo sapiens, UniProt P57059); test: Biochemical activities determination for SIK1 protein (TR-FRET); conditions: 110 uM ATP, 0.5 μM STK1 substrate
T2 construct: SIK1 kinase (aa1-303, Thermo Fisher); purchased Thermo Fisher
T2 sequence (P57059 1-303): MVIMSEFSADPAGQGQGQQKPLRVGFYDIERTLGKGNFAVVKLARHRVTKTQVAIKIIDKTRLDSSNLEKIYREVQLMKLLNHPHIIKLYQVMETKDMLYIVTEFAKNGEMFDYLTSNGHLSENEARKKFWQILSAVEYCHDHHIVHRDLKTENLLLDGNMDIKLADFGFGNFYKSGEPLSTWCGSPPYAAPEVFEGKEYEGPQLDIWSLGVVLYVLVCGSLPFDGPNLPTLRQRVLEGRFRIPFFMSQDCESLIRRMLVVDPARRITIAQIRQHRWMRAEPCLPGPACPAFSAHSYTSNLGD
Outline: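 TR-FRET kinase assay with SIK1 (aa1-303), 110 uM ATP, 0.5 μM STK1 substrate and 0-10 μM compound in Tris pH 7.5 with MgCl2, EGTA, DTT, Triton X-100. Enzyme preincubated with compound 60 min, reaction 180 min at room temperature; 665/620 nm ratio after overnight detection; IC50 from four-parameter logistic fit.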

[3] = target: T3, SIK3 kinase (aa59-365, Thermo Fisher) (Homo sapiens, UniProt Q9Y2K2); test: Biochemical activities determination for SIK3 protein (TR-FRET); conditions: 125 uM ATP, 0.5 μM STK1 substrate
T3 construct: SIK3 kinase (aa59-365, Thermo Fisher); purchased Thermo Fisher
T3 sequence (Q9Y2K2 59-365): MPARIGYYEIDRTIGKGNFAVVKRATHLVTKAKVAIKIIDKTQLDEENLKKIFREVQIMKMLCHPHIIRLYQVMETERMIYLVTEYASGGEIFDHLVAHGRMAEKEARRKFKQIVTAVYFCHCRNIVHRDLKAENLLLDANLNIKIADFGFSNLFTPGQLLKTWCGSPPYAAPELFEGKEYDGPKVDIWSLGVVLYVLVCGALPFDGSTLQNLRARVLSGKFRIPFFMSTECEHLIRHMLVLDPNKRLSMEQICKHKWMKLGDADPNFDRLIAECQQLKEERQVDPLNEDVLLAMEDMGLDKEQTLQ
Outline: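 SIK3 (aa59-365) was preincubated with compound (0-10 μM) for 60 min at room temperature in Tris buffer pH 7.5. The reaction was then started with 125 uM ATP and 0.5 μM STK1 substrate and run 180 min at room temperature. Phospho-substrate was detected by HTRF (665/620 nm ratio), and IC50 came from a four-parameter logistic fit.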

T1 sequence (Q9H0K1 whole entry): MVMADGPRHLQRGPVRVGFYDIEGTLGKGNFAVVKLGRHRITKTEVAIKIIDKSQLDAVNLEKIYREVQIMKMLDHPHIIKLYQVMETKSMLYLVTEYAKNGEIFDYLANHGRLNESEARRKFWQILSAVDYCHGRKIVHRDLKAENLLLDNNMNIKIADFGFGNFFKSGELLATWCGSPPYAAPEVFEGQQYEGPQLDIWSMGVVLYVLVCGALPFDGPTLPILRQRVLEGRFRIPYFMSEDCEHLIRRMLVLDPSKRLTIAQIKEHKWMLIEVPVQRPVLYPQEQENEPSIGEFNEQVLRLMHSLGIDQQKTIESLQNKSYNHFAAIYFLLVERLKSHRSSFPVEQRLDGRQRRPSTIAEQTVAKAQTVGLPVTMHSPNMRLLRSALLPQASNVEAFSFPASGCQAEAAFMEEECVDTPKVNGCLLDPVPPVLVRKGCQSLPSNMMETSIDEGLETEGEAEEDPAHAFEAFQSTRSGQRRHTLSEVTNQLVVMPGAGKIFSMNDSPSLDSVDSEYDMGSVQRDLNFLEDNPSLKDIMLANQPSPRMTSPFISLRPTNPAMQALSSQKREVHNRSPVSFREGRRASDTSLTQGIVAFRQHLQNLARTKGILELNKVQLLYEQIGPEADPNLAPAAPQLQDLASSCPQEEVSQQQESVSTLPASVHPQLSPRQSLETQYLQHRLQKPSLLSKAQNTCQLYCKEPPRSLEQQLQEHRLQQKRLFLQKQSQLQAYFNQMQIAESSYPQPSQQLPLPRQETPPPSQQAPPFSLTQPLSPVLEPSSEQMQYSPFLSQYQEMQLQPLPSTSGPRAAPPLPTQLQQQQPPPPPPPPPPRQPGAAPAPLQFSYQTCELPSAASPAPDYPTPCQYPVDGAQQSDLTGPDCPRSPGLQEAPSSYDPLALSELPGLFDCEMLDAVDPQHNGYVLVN

Row | IC50 [1] [nM] | IC50 [2] [nM] | IC50 [3] [nM] | Structure (SMILES)
1 | 269 | > 10000 | 759 | COc1cc(-c2coc3cc(OCCN4CCCC4)ccc23)cc(OC(F)F)c1C(=O)N[C@H]1C[C@@H]1F [Compound 99, 2-(difluoromethoxy)-N-((1S,2S)-2-fluorocyclopropyl)-6-methoxy-4-(6-(2-(pyrrolidin-1-yl)ethoxy)benzofuran-3-yl)benzamide]
2 | 31 | 3590 | 80 | COc1cc(-c2coc3cc(OCCN4CCCC4)ccc23)cc(OC(F)F)c1C(=O)NC1CC1(F)F (stereo not drawn) [Compound 100, N-(2,2-difluorocyclopropyl)-2-(difluoromethoxy)-6-methoxy-4-(6-(2-(pyrrolidin-1-yl)ethoxy)benzofuran-3-yl)benzamide]
3 | 8970 | > 10000 | > 10000 | O=C(NC1CC1)c1c(OC(F)F)cc(-c2coc3cc(OCCN4CCCC4)ccc23)cc1O[C@H]1CC[C@H](O)CC1 [Compound 101, N-cyclopropyl-2-(difluoromethoxy)-6-(((1r,4r)-4-hydroxycyclohexyl)oxy)-4-(6-(2-(pyrrolidin-1-yl)ethoxy)benzofuran-3-yl)benzamide]
4 | 2480 | > 10000 | > 10000 | O=C(NC1CC1)c1c(OC(F)F)cc(-c2coc3cc(OCCN4CCCC4)ccc23)cc1O[C@H]1CC[C@@H](O)CC1 [Compound 102, N-cyclopropyl-2-(difluoromethoxy)-6-(((1s,4s)-4-hydroxycyclohexyl)oxy)-4-(6-(2-(pyrrolidin-1-yl)ethoxy)benzofuran-3-yl)benzamide]
5 | 114 | 9500 | 410 | O=C(NC1CC1)c1c(OCCO)cc(-c2coc3cc(OCCN4CCCC4)ccc23)cc1OC(F)F [Compound 103, N-cyclopropyl-2-(difluoromethoxy)-6-(2-hydroxyethoxy)-4-(6-(2-(pyrrolidin-1-yl)ethoxy)benzofuran-3-yl)benzamide]
6 | 52 | 4580 | 211 | O=C(NC1CC1)c1c(NCCO)cc(-c2coc3cc(OCCN4CCCC4)ccc23)cc1OC(F)F [Compound 104, N-cyclopropyl-2-(difluoromethoxy)-6-((2-hydroxyethyl)amino)-4-(6-(2-(pyrrolidin-1-yl)ethoxy)benzofuran-3-yl)benzamide]
7 | 398 | > 10000 | 1770 | O=C(NC1CC1)c1c(F)cc(-c2coc3cc(OCCN4CCCC4)ccc23)cc1OC(F)F [Compound 105, N-cyclopropyl-2-(difluoromethoxy)-6-fluoro-4-(6-(2-(pyrrolidin-1-yl)ethoxy)benzofuran-3-yl)benzamide]
8 | 2960 | > 10000 | > 10000 | CN1CC(Oc2cc(-c3coc4cc(OCCN5CCCC5)ccc34)cc(OC(F)F)c2C(=O)NC2CC2)C1 [Compound 106, N-cyclopropyl-2-(difluoromethoxy)-6-((1-methylazetidin-3-yl)oxy)-4-(6-(2-(pyrrolidin-1-yl)ethoxy)benzofuran-3-yl)benzamide]
9 | 5610 | > 10000 | > 10000 | CN1CCC[C@@H]1COc1cc(-c2coc3cc(OCCN4CCCC4)ccc23)cc(OC(F)F)c1C(=O)NC1CC1 [Compound 107, (R)—N-cyclopropyl-2-(difluoromethoxy)-6-((1-methylpyrrolidin-2-yl)methoxy)-4-(6-(2-(pyrrolidin-1-yl)ethoxy)benzofuran-3-yl)benzamide]
10 | 2780 | > 10000 | > 10000 | CC(C)(O)COc1cc(-c2coc3cc(OCCN4CCCC4)ccc23)cc(OC(F)F)c1C(=O)NC1CC1 [Compound 108, N-cyclopropyl-2-(difluoromethoxy)-6-(2-hydroxy-2-methylpropoxy)-4-(6-(2-(pyrrolidin-1-yl)ethoxy)benzofuran-3-yl)benzamide]
11 | 3850 | > 10000 | > 10000 | CN1CC[C@@H](Oc2cc(-c3coc4cc(OCCN5CCCC5)ccc34)cc(OC(F)F)c2C(=O)NC2CC2)C1 [Compound 110, (R)—N-cyclopropyl-2-(difluoromethoxy)-6-((1-methylpyrrolidin-3-yl)oxy)-4-(6-(2-(pyrrolidin-1-yl)ethoxy)benzofuran-3-yl)benzamide]
12 | 1190 | > 10000 | 5700 | CN1CC[C@H](Oc2cc(-c3coc4cc(OCCN5CCCC5)ccc34)cc(OC(F)F)c2C(=O)NC2CC2)C1 [Compound 111, (S)—N-cyclopropyl-2-(difluoromethoxy)-6-((1-methylpyrrolidin-3-yl)oxy)-4-(6-(2-(pyrrolidin-1-yl)ethoxy)benzofuran-3-yl)benzamide]
13 | 1300 | > 10000 | 7620 | CN1CC[C@@H](COc2cc(-c3coc4cc(OCCN5CCCC5)ccc34)cc(OC(F)F)c2C(=O)NC2CC2)C1 [Compound 112, (R)—N-cyclopropyl-2-(difluoromethoxy)-6-((1-methylpyrrolidin-3-yl)methoxy)-4-(6-(2-(pyrrolidin-1-yl)ethoxy)benzofuran-3-yl)benzamide]
14 | 7320 | > 10000 | > 10000 | CN1CCC[C@H]1COc1cc(-c2coc3cc(OCCN4CCCC4)ccc23)cc(OC(F)F)c1C(=O)NC1CC1 [Compound 113, (S)—N-cyclopropyl-2-(difluoromethoxy)-6-((1-methylpyrrolidin-2-yl)methoxy)-4-(6-(2-(pyrrolidin-1-yl)ethoxy)benzofuran-3-yl)benzamide]
15 | 745 | > 10000 | 5490 | CN1CC[C@@H]1COc1cc(-c2coc3cc(OCCN4CCCC4)ccc23)cc(OC(F)F)c1C(=O)NC1CC1 [Compound 114, (R)—N-cyclopropyl-2-(difluoromethoxy)-6-((1-methylazetidin-2-yl)methoxy)-4-(6-(2-(pyrrolidin-1-yl)ethoxy)benzofuran-3-yl)benzamide]
16 | 582 | > 10000 | 4240 | CN1CC(COc2cc(-c3coc4cc(OCCN5CCCC5)ccc34)cc(OC(F)F)c2C(=O)NC2CC2)C1 [Compound 115, N-cyclopropyl-2-(difluoromethoxy)-6-((1-methylazetidin-3-yl)methoxy)-4-(6-(2-(pyrrolidin-1-yl)ethoxy)benzofuran-3-yl)benzamide]
17 | 1120 | > 10000 | > 10000 | CN1CC[C@H](COc2cc(-c3coc4cc(OCCN5CCCC5)ccc34)cc(OC(F)F)c2C(=O)NC2CC2)C1 [Compound 116, (S)—N-cyclopropyl-2-(difluoromethoxy)-6-((1-methylpyrrolidin-3-yl)methoxy)-4-(6-(2-(pyrrolidin-1-yl)ethoxy)benzofuran-3-yl)benzamide]
18 | 2940 | > 10000 | > 10000 | CN1CC[C@H]1COc1cc(-c2coc3cc(OCCN4CCCC4)ccc23)cc(OC(F)F)c1C(=O)NC1CC1 [Compound 117, (S)—N-cyclopropyl-2-(difluoromethoxy)-6-((1-methylazetidin-2-yl)methoxy)-4-(6-(2-(pyrrolidin-1-yl)ethoxy)benzofuran-3-yl)benzamide]

Row | Structure (SMILES) | IC50 [1] [nM] | IC50 [2] [nM] | IC50 [3] [nM]
19 | NC1CC(Oc2cc(-c3coc4cc(OCCN5CCCC5)ccc34)cc(OC(F)F)c2C(=O)NC2CC2)C1 (stereo not drawn) [Compound 109, 2-(3-aminocyclobutoxy)-N-cyclopropyl-6-(difluoromethoxy)-4-(6-(2-(pyrrolidin-1-yl)ethoxy)benzofuran-3-yl)benzamide] | 329 | > 10000 | 2520

Reference: patent publication US20260085053A1, “BENZOFURAN DERIVATIVES AS SIK INHIBITORS AND THE USE THEREOF” (BEONE MEDICINES I GMBH, priority 2023, published 2026)
